pIC50: −log10 of the molar value.

The results in this text go back to patent publication US9957264B2 (Merck Sharp & Dohme Corp., priority 2013, dated 2018).

Assay [1] has as its target JAK1 (recombinant purified GST-tagged catalytic domain) (Homo sapiens (Human), UniProt P23458). The assay is described as follows: Jak Biochemical HTRF Assay (JAK1). Particulars: [ATP] 31.8 μM. The gist of the method:
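Kinase reaction with biotinylated peptide substrate was started by ATP addition and run 120 min at room temperature, then quenched with EDTA stop buffer containing streptavidin-Dylight 650 and Eu-pY20 antibody. HTRF read 60 min later (665/615 nm ratio); percent inhibition vs log concentration fit to 4-parameter curve for IC50.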
In general terms: In TR-FRET formats the signal depends on donor and acceptor labels being close together.

Assay [2] concerns the target JAK2 (recombinant purified GST-tagged catalytic domain) (Homo sapiens (Human), UniProt O60674). The assay is described as follows: Jak Biochemical HTRF Assay (JAK2). As to conditions: [ATP] 8.5 μM. How it is done: Jak Biochemical HTRF Assay Protocol
The ability of compounds to inhibit the activity of JAK1, JAK2, JAK3, and Tyk2 was measured using a recombinant purified GST-tagged catalytic domain for each enzyme (Invitrogen JAK1 #M4290, JAK2 #M4290, JAK3 #M4290, Tyk2 #M4290) in an HTRF format biochemical assay. […] The basic assay protocol is as follows: First, 250 nL of diluted compounds in DMSO were dispensed into the wells of a dry 384-well Black plate (Greiner #781076) using a Labcyte Echo 555 acoustic dispenser. Subsequent reagent additions employed an Agilent Bravo. […] After equilibration, 2 μL of 10×ATP in 1× assay buffer was added to initiate the kinase reaction and the plates were shaken and then incubated at room temperature for 120 minutes. […] Plates were shaken and centrifuged and then incubated 60 minutes at room temperature and then read on a Perkin Elmer Envision (λex=337 nm, λem=665 and 615 nm, TRF delay time=20 μs). HTRF signal=10,000*665 nm reading/615 nm reading. After normalization to untreated controls, the percent inhibition of the HTRF signal at each compound concentration was calculated. The plot of percent inhibition versus the log of compound concentration was fit with a 4-parameter dose response equation to calculate IC50 values.
Final reaction conditions were:
Examples of the instant invention were evaluated in JAK1 and JAK2 in vitro binding assays as described above.

Chain of JAK1 (recombinant purified GST-tagged catalytic domain) (P23458 875-1153): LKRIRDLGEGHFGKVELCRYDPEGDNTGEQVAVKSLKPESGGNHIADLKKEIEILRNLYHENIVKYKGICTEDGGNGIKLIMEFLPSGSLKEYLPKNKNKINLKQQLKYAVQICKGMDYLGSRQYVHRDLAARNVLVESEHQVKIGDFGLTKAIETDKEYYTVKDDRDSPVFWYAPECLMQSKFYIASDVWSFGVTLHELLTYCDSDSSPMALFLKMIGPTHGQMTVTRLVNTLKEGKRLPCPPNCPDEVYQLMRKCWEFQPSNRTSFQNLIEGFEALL
Chain of JAK2 (recombinant purified GST-tagged catalytic domain) (O60674 849-1124): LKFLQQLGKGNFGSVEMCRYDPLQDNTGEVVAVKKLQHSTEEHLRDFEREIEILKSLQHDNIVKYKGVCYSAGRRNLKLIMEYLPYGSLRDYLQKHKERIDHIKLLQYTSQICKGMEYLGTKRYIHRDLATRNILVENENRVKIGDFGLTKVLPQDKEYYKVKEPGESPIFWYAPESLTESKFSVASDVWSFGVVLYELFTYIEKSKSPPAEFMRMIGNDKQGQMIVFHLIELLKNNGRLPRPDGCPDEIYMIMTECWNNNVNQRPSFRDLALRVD

Take `CN(C)S(=O)(=O)c1ccc(Nc2nn(C3(CC#N)CCN(C(=O)C4CCOCC4)CC3)c3cc[nH]c(=O)c23)cc1` [Example 9-20, 4-({1-[4-(cyanomethyl)-1-(tetrahydro-2H-pyran-4-ylcarbonyl)piperidin-4-yl]-4-oxo-4,5-dihydro-1H-pyrazolo[4,3-c]pyridin-3-yl}amino)-N,N-dimethylbenzenesulfonamide]: the values for the pIC50 in assay [1] and in assay [2] were 9.51 and 8.61, respectively.
Taken in the same sequence, the figures for `COC(=O)N1CCC(CC#N)(n2nc(Nc3ccc4c(c3)CN(CC3CC3)S4(=O)=O)c3c(=O)[nH]ccc32)CC1` [Example 5-74, methyl 4-(cyanomethyl)-4-(3-{[2-(cyclopropylmethyl)-1,1-dioxo-2,3-dihydro-1,2-benzothiazol-5-yl]amino}-4-oxo-1H,4H,5H-pyrazolo [4,3-c]pyridin-1-yl) piperidine-1-carboxylate] were 10.22 and 9.57.
The matching figures for `CN(C)S(=O)(=O)c1ccc(Nc2nn(C3(CC#N)CCN(C(=O)c4ccccc4Cl)CC3)c3cc[nH]c(=O)c23)cc1` [Example 9-15, 4-[(1-{1-[(2-chlorophenyl)carbonyl]-4-(cyanomethyl)piperidin-4-yl}-4-oxo-4,5-dihydro-1H-pyrazolo[4,3-c]pyridin-3-yl)amino]-N,N-dimethylbenzenesulfonamide]: 9.09 and 8.08.
For `CC(C)NC(c1ccc(Nc2nn([C@]3(CC#N)CC[C@@H](C(=O)OC(C)(C)C)OC3)c3cc[nH]c(=O)c23)cc1)C(F)(F)F` (single isomer, unassigned) [Example 5-210, (2S,5S)-tert-butyl 5-(cyanomethyl)-5-(4-oxo-3-((4-((R or S)-2,2,2-trifluoro-1-(isopropylamino)ethyl)phenyl)amino)-4,5-dihydro-1H-pyrazolo[4,3-c]pyridin-1-yl)tetrahydro-2H-pyran-2-carboxylate], the pIC50 was 9.39 in assay [1] and 9.29 in assay [2].
Take `CN1Cc2cc(Nc3nn([C@]4(CC#N)CC[C@H](N5CC(F)C5)CC4)c4cc[nH]c(=O)c34)ccc2S1(=O)=O` [Example 18-31]: the pIC50 is 8.74 in assay [1] and 7.77 in assay [2].
As to `Cc1cc(Nc2nn([C@]3(CC#N)CCCOC3)c3cc[nH]c(=O)c23)ccc1C(=O)N1CCOCC1` [Example 5-118, (S)-2-(3-(3-((3-methyl-4-(morpholine-4-carbonyl)phenyl)amino)-4-oxo-4,5-dihydro-1H-pyrazolo[4,3-c]pyridin-1-yl)tetrahydro-2H-pyran-3-yl)acetonitrile], the pIC50 in assay [1] was 9.47; in assay [2], 9.12.
The matching figures for `CC(C)OC(=O)[C@@H]1CC[C@@](CC#N)(n2nc(Nc3ccc4c(c3)CN(C(C)(C)C)S4(=O)=O)c3c(=O)[nH]ccc32)CO1` [Example 19-3, (2S,5S)-isopropyl 5-(3-((2-(tert-butyl)-1,1-dioxido-2,3-dihydrobenzo[d]isothiazol-5-yl)amino)-4-oxo-4,5-dihydro-1H-pyrazolo[4,3-c]pyridin-1-yl)-5-(cyanomethyl)tetrahydro-2H-pyran-2-carboxylate]: 10.40 and 10.22.
As for `CC(C)(C)OC(=O)[C@@H]1CC[C@@](CC#N)(n2nc(Nc3ccc(C4(C(F)(F)F)CCCCN4)cc3)c3c(=O)[nH]ccc32)CO1` (single isomer, unassigned) [Example 5-287, (2S,5S)-tert-butyl 5-(cyanomethyl)-5-(4-oxo-3-((4-((S or R)-2-(trifluoromethyl)piperidin-2-yl)phenyl)amino)-4,5-dihydro-1H-pyrazolo[4,3-c]pyridin-1-yl)tetrahydro-2H-pyran-2-carboxylate], the pIC50 in assay [1] is 9.60; in assay [2], 9.46.
As to `CN1Cc2cc(Nc3nn(C4(CC#N)CCCCC4)c4cc[nH]c(=O)c34)ccc2S1(=O)=O` [Example 5-81, 2-(1-(3-((2-methyl-1,1-dioxido-2,3-dihydrobenzo[d]isothiazol-5-yl)amino)-4-oxo-4,5-dihydro-1H-pyrazolo[4,3-c]pyridin-1-yl)cyclohexyl)acetonitrile], the pIC50 is 9.62 in assay [1] and 8.43 in assay [2].
As for `CN(C)C(=O)c1ccc2cc(Nc3nn([C@]4(CC#N)CC[C@@H](C(=O)OC(C)(C)C)OC4)c4cc[nH]c(=O)c34)ccc2n1` [Example 5-238, (2S,5S)-tert-butyl 5-(cyanomethyl)-5-(3-((2-(dimethylcarbamoyl)quinolin-6-yl)amino)-4-oxo-4,5-dihydro-1H-pyrazolo[4,3-c]pyridin-1-yl)tetrahydro-2H-pyran-2-carboxylate], the pIC50 in assay [1] was 9.96; in assay [2], 9.32.
In the case of `Cc1cc(Nc2nn([C@]3(CC#N)CC[C@@H](C(=O)OC(C)(C)C)OC3)c3cc[nH]c(=O)c23)ccc1C(=O)N1CCSC1C` (single isomer, unassigned) [Example 5-157, (2S,5S)-tert-butyl 5-(cyanomethyl)-5-(3-((3-methyl-4-((S or R)-2-methylthiazolidine-3-carbonyl)phenyl)amino)-4-oxo-4,5-dihydro-1H-pyrazolo[4,3-c]pyridin-1-yl)tetrahydro-2H-pyran-2-carboxylate], the pIC50 is 9.72 in assay [1] and 9.57 in assay [2].
Turning to `CC(C)(C)OC(=O)N1CCC(CC#N)(n2nc(Nc3cc(Cn4nccn4)cc(Cn4nccn4)c3)c3c(=O)[nH]ccc32)CC1` [Example 5-63, tert-butyl 4-(3-(3,5-bis((2H-1,2,3-triazol-2-yl)methyl)phenylamino)-4-oxo-4,5-dihydropyrazolo[4,3-c]pyridin-1-yl)-4-(cyanomethyl)piperidine-1-carboxylate], the pIC50 in assay [1] was 8.68; in assay [2] it was 9.15.
On to `N#CC[C@@]1(n2nc(Nc3ccc4c(c3)CN(C3CCCC3)C4=O)c3c(=O)[nH]ccc32)CCCOC1` [Example 5-197, [(3S)-3-{3-[(2-cyclopentyl-1-oxo-2,3-dihydro-1H-isoindol-5-yl)amino]-4-oxo-4,5-dihydro-1H-pyrazolo[4,3-c]pyridin-1-yl}tetrahydro-2H-pyran-3-yl]acetonitrile], for which the values for the pIC50 in assay [1] and in assay [2] were 9.89 and 8.95, respectively.
With `CN(C)S(=O)(=O)c1ccc(Nc2nn(C3(CC#N)CCN(C(=O)OC4CCSCC4)CC3)c3cc[nH]c(=O)c23)cc1` [Example 11-4, tetrahydro-2H-thiopyran-4-yl 4-(cyanomethyl)-4-(3-((4-(N,N-dimethylsulfamoyl)phenyl)amino)-4-oxo-4,5-dihydro-1H-pyrazolo[4,3-c]pyridin-1-yl)piperidine-1-carboxylate], the negative-log IC50 (pIC50) in assay [1] was 9.57; in assay [2] it was 8.84.
Regarding `N#CC[C@]1(n2nc(Nc3cc(F)c4nccc(Cl)c4c3)c3c(=O)[nH]ccc32)CCOC1` (single isomer, unassigned) [Example 5-244, [(3S or 3R)-3-{3-[(4-chloro-8-fluoroquinolin-6-yl)amino]-4-oxo-4,5-dihydro-1H-pyrazolo[4,3-c]pyridin-1-yl}tetrahydrofuran-3-yl]acetonitrile], the figures for the pIC50 in assay [1] and in assay [2] were 7.64 and 6.46, respectively.
Take `Cc1cc(Nc2nn([C@]3(CC#N)CC[C@@H](C(=O)OC(C)(C)C)OC3)c3cc[nH]c(=O)c23)ccc1C(=O)N1CC(C)OC(C)C1` (single isomer, unassigned) [Example 20-13, (2S,5S)-tert-butyl 5-(cyanomethyl)-5-(3-((4-((2S,6S or 2R,6R)-2,6-dimethylmorpholine-4-carbonyl)-3-methylphenyl)amino)-4-oxo-4,5-dihydro-1H-pyrazolo[4,3-c]pyridin-1-yl)tetrahydro-2H-pyran-2-carboxylate]: the pIC50 in assay [1] was 9.66; in assay [2], 9.59.
The matching figures for `CS(=O)(=O)NC(=O)[C@@H]1CC[C@@](CC#N)(n2nc(Nc3ccc(Cl)cc3)c3c(=O)[nH]ccc32)CO1` [Example 22, (2S,5S)-5-(3-((4-chlorophenyl)amino)-4-oxo-4,5-dihydro-1H-pyrazolo[4,3-c]pyridin-1-yl)-5-(cyanomethyl)-N-(methylsulfonyl)tetrahydro-2H-pyran-2-carboxamide]: 8.42 and 7.63.
With `COC(=O)N1CCC(CC#N)(n2nc(Nc3ccc(C(C)(O)C(F)(F)F)cc3)c3c(=O)[nH]ccc32)CC1` (single isomer, unassigned) [Example 5-142, (R or S)-methyl 4-(cyanomethyl)-4-(4-oxo-3-((4-(1,1,1-trifluoro-2-hydroxypropan-2-yl)phenyl)amino)-4,5-dihydro-1H-pyrazolo[4,3-c]pyridin-1-yl)piperidine-1-carboxylate], the pIC50 was 9.89 in assay [1] and 9.48 in assay [2].
`CC(C)(C)N1Cc2cc(Nc3nn(C4(CC#N)CCOCC4)c4cc[nH]c(=O)c34)ccc2S1(=O)=O` [Example 5-251, 2-(4-(3-((2-(tert-butyl)-1,1-dioxido-2,3-dihydrobenzo[d]isothiazol-5-yl)amino)-4-oxo-4,5-dihydro-1H-pyrazolo[4,3-c]pyridin-1-yl)tetrahydro-2H-pyran-4-yl)acetonitrile]: the pIC50 in assay [1] is 10.22; in assay [2] it was 9.11.

By pIC50 is commonly meant the IC50 on a negative log10 scale, so that one unit is a factor of ten.
